This note sets out measurements from article PMC7115408 (European Journal of Medicinal Chemistry, 2014).

Usually EC50 stands for the concentration giving half of the maximal effect. Usually zone of inhibition stands for the extent of the growth-free halo in a diffusion test.

“Also recorded” adds a separate entry of the source. Read-outs that look alike come from different tables or passages of the source.

In one assay the test system is influenza A virus H3N2. The experiment in a line: Anti influenza screening, cytopathic effect and cytotoxicity assays. As to conditions: read-out: Influenza Type-A H3N2 EC50. The class given is cell-based. (Cytopathic effects are the visible damage that an infection or toxin causes in cultured cells.)
The subject of another assay is HSV-1. The experiment in a line: In vitro antiviral screening, cytopathic effect and neutral red assays. It is filed as cell-based. As to conditions: read-out: HSV-1 EC50.
In the next assay the test system is influenza B virus. The experiment in a line: Anti influenza screening, cytopathic effect and cytotoxicity assays. It is filed as cell-based. As to conditions: read-out: Influenza Type-B EC50.
The next assay has as its system influenza A virus H1N1. The assay is described as above. The class given is cell-based. As to conditions: read-out: Influenza Type-A H1N1 EC50.
Another assay relates to WNV. Briefly: In vitro antiviral screening, visual and neutral red tests. The class given is cell-based, West Nile virus (WNV). To be noted: read-out: WNV EC50.
Another assay relates to HCV. The class given is cell-based. To be noted: read-out: HCV EC50.
A further assay relates to HSV-2. The experiment in a line: In vitro antiviral screening, cytopathic effect and neutral red assays. The class given is cell-based. To be noted: read-out: HSV-2 EC50.
Another assay deals with influenza A virus H5N1. The class given is cell-based. As to conditions: for EC50: read-out: Influenza Type-A H5N1 EC50.
The next assay deals with HBV. It is filed as cell-based. As to conditions: read-out: HBV EC50; DNA virion assay.
Another assay has as its system SARS-CoV. The experiment in a line: microbe, parasite or virus in culture. The class given is cell-based, severe acute respiratory syndrome coronavirus (SARS-CoV). To be noted: for EC50: read-out: SARS-CoV EC50.
In another assay the test system is Bacillus subtilis. The experiment in a line: Well diffusion zone of inhibition, antibacterial. It is filed as cell-based. As to conditions: for Antibacterial activity against B. subtilis (in words): zone of inhibition compared to Ampicillin; for zone of inhibition at 250 µg/disc: Bacillus subtilis, 48 h, read-out: Diameter of inhibition zone, Bacillus subtilis.
The subject of the next assay is Escherichia coli. Briefly: Well diffusion zone of inhibition, antibacterial. The class given is cell-based. As to conditions: for zone of inhibition at 250 µg/disc: Escherichia coli, 48 h, read-out: Diameter of inhibition zone, Escherichia coli. For orientation: A growth-free zone around the sample is the usual read-out of agar diffusion tests.
The subject of the next assay is Asperigillus niger. The experiment in a line: Well diffusion zone of inhibition, antifungal. The class given is cell-based. To be noted: Aspergillus niger, read-out: Diameter of inhibition zone, Asperigillus niger.

On to “2-Oxo-4,6-di(2-thienyl)nicotinonitrile [Compound 1c]”, for which the EC50 is 16 µM in the assay with influenza A virus H3N2; more than 12 µM with HSV-1; more than 100 µM with influenza B virus; 32 µM in the assay with influenza A virus H1N1; more than 4600 nM with WNV; more than 100 µM with HCV. Also, the concentration for a half-maximal effect (EC50) in the assay with HSV-2 is more than 12 µM; in the assay with influenza A virus H5N1, more than 100 µM; in the assay on HBV, more than 100 µM; with SARS-CoV it was more than 100 µM.
Regarding “4-(4-Chlorophenyl)-2-oxo-6-(2-pyridyl)nicotinonitrile [Compound 1a]”, the EC50 is more than 2.6 µM with influenza A virus H3N2; more than 300 µM in the assay with HSV-1; more than 36 µM in the assay with influenza B virus; 26 µM in the assay on influenza A virus H1N1; more than 2200 nM in the assay on WNV; more than 100 µM with HCV. The concentration giving a half-maximal response (EC50) in the assay on HSV-2 is more than 300 µM; with influenza A virus H5N1 it was more than 100 µM; in the assay on HBV it was more than 100 µM; in the assay with SARS-CoV it was more than 0.32 µM.
Regarding “4-(4-Isopropylphenyl)-2-oxo-6-(2-thienyl)nicotinonitrile [Compound 1b]”, the half-maximal effective concentration (EC50) is 22 µM with influenza A virus H3N2; more than 300 µM in the assay with HSV-1; 46 µM with influenza B virus; more than 2200 nM in the assay on WNV; more than 100 µM with HCV; more than 300 µM in the assay on HSV-2. Also, the EC50 with influenza A virus H5N1 was 32 µM; in the assay on HBV, more than 100 µM; in the assay with SARS-CoV, more than 26 µM.
Take `CC(=O)OC[C@H]1O[C@@H](n2c(-c3ccccn3)cc(-c3ccc(Cl)cc3)c(C#N)c2=O)[C@H](OC(C)=O)[C@@H](OC(C)=O)[C@@H]1OC(C)=O` [Compound 2aAc]: the “Anti influenza A (H5N1) activity (in words)” value in the assay with influenza A virus H5N1 is “good and slightly active and active”. The “Anti SARS-CoV activity (in words)” value in the assay with SARS-CoV is given as “slightly active by visual, but not neutral red test; also recorded: active”.
For the compound `CC(C)c1ccc(-c2cc(-c3cccs3)n([C@@H]3O[C@H](CO)[C@@H](O)[C@H](O)[C@H]3O)c(=O)c2C#N)cc1` [Compound 2b, 1-(β-D-Glucopyranosyl)-4-(4-isopropylphenyl)-2-oxo-6-(2-thienyl)nicotinonitrile], the “Antibacterial activity against B. subtilis (in words)” value in the assay on Bacillus subtilis is given as “moderate antibacterial activity”.
Turning to `CC(=O)OC[C@H]1O[C@@H](n2c(-c3cccs3)cc(-c3ccc(C(C)C)cc3)c(C#N)c2=O)[C@H](OC(C)=O)[C@@H](OC(C)=O)[C@@H]1OC(C)=O` [Compound 2bAc], the “Antibacterial activity against B. subtilis (in words)” value with Bacillus subtilis is “lower antibacterial activity”.
For the compound `N#Cc1c(-c2cccs2)cc(-c2cccs2)n([C@@H]2O[C@H](CO)[C@@H](O)[C@H](O)[C@H]2O)c1=O` [Compound 2c, 1-(β-D-Glucopyranosyl)-2-oxo-4,6-di(2-thienyl)nicotinonitrile], the “Antibacterial activity against B. subtilis (in words)” value in the assay with Bacillus subtilis is “lower antibacterial activity”. Moreover, the zone of inhibition at 250 µg/disc with Escherichia coli turned out to be 0 mm; in the assay on Asperigillus niger, 8 mm.
Turning to `CC(=O)OC[C@H]1O[C@@H](n2c(-c3cccs3)cc(-c3cccs3)c(C#N)c2=O)[C@H](OC(C)=O)[C@@H](OC(C)=O)[C@@H]1OC(C)=O` [Compound 2cAc], the “Antibacterial activity against B. subtilis (in words)” value with Bacillus subtilis is recorded as “lower antibacterial activity”. For the same compound, in the assay on SARS-CoV (Severe acute respiratory syndrome coronavirus), the EC50 was more than 32 µM.
For the compound `N#Cc1c(-c2ccc(Cl)cc2)cc(-c2ccccn2)n([C@@H]2O[C@H](CO)[C@H](O)[C@H](O)[C@H]2O)c1=O` [Compound 3a, 4-(4-Chlorophenyl)-1-(β-D-galactopyranosyl)-2-oxo-6-(2-pyridyl)nicotinonitrile], the “Antibacterial activity against B. subtilis (in words)” value with Bacillus subtilis is reported as “lower antibacterial activity”.
Consider `CC(=O)OC[C@H]1O[C@@H](n2c(-c3ccccn3)cc(-c3ccc(Cl)cc3)c(C#N)c2=O)[C@H](OC(C)=O)[C@@H](OC(C)=O)[C@H]1OC(C)=O` [Compound 3aAc], for which, in the assay with Bacillus subtilis, the zone of inhibition at 250 µg/disc amounted to 1 mm and the “Antibacterial activity against B. subtilis (in words)” value is “lower antibacterial activity”.
On to `CC(C)c1ccc(-c2cc(-c3cccs3)n([C@@H]3O[C@H](CO)[C@H](O)[C@H](O)[C@H]3O)c(=O)c2C#N)cc1` [Compound 3b, 1-(β-D-Galactopyranosyl)-4-(4-isopropylphenyl)-2-oxo-6-(2-thienyl)nicotinonitrile], for which the “Antibacterial activity against B. subtilis (in words)” value with Bacillus subtilis is “lower antibacterial activity”. Also, the zone of inhibition at 250 µg/disc in the assay on Asperigillus niger amounted to 8 mm.
Consider `CC(=O)OC[C@H]1O[C@@H](n2c(-c3cccs3)cc(-c3ccc(C(C)C)cc3)c(C#N)c2=O)[C@H](OC(C)=O)[C@@H](OC(C)=O)[C@H]1OC(C)=O` [Compound 3bAc], for which, in the assay on Bacillus subtilis, the zone of inhibition at 250 µg/disc was 1 mm and the “Antibacterial activity against B. subtilis (in words)” value is “lower antibacterial activity”. In addition, the zone of inhibition at 250 µg/disc in the assay on Escherichia coli came to 0 mm.
In the case of `N#Cc1c(-c2cccs2)cc(-c2cccs2)n([C@@H]2O[C@H](CO)[C@H](O)[C@H](O)[C@H]2O)c1=O` [Compound 3c, 1-(β-D-Galactopyranosyl)-2-oxo-4,6-di(2-thienyl)-nicotinonitrile], the “Antibacterial activity against B. subtilis (in words)” value in the assay with Bacillus subtilis is on record as “lower antibacterial activity”.
In the case of `N#Cc1c(-c2ccc(Cl)cc2)cc(-c2ccccn2)nc1OCCCCO` [Compound 5, 4-(4-Chlorolphenyl)-2-(4-hydroxybutyloxy)-6-(2-pyridyl)nicotinonitrile], in the assay with Bacillus subtilis, the “Antibacterial activity against B. subtilis (in words)” value is listed as “lower antibacterial activity”.
For the compound `CC(=O)OCCCCOc1nc(-c2ccccn2)cc(-c2ccc(Cl)cc2)c1C#N` [Compound 5Ac], the “Antibacterial activity against B. subtilis (in words)” value with Bacillus subtilis is reported as “lower antibacterial activity”.
On to `CC(C)c1ccc(-c2cc(-c3cccs3)n(COCCO)c(=O)c2C#N)cc1` [Compound 7b, 1-[(2-Hydroxyethoxy)methyl]-4-(4-isopropylphenyl)-2-oxo-6-(2-thienyl)nicotinonitrile], for which the “Antibacterial activity against B. subtilis (in words)” value in the assay on Bacillus subtilis is reported as “good activity”. Further, the “Antibacterial activity against E. coli (in words)” value in the assay with Escherichia coli (zone of inhibition) is “no activity”.
Regarding `CC(=O)OCCOCn1c(-c2cccs2)cc(-c2cccs2)c(C#N)c1=O` [Compound 7cAc, 1-[(2-Acetoxyethoxy)methyl]-2-oxo-4,6-di(2-thienyl)nicotinonitrile], in the assay on Bacillus subtilis, the “Antibacterial activity against B. subtilis (in words)” value was “moderate antibacterial activity”.
`N#Cc1c(-c2ccc(Cl)cc2)cc(-c2ccccn2)n(CCCO)c1=O` [Compound 8a, 4-(4-Chlorolphenyl)-1-(3-hydroxypropyl)-2-oxo-6-(2-pyridyl)nicotinonitrile]: the “Antibacterial activity against B. subtilis (in words)” value in the assay with Bacillus subtilis was “lower antibacterial activity”.
As for `C=CCOc1nc(-c2ccccn2)cc(-c2ccc(Cl)cc2)c1C#N` [Compound 9, 2-(Allyloxy)-4-(4-chlorolphenyl)-6-(2-pyridyl)nicotinonitrile], the “Antibacterial activity against B. subtilis (in words)” value with Bacillus subtilis is “lower antibacterial activity”.
